“Also recorded” adds a separate entry of the source. Where two headings read alike, the source gives them in different places. Marks after values point to notes of the source that are not given here.
Tests used:
[1] = system: UVB-induced skin tumors in high risk SKH-1 mice
[2] = system: phospho-Chk2 (Ser387); assay: Epidermal phospho-Chk2 (Ser387) in UVB-treated mice, western blot; format: in vivo, mouse; conditions: topical immediately after UVB 30 mJ/cm2; 6 hours
[3] = system: apoptotic sunburn cells in the epidermis of SKH-1 mice; assay: UVB-induced apoptotic sunburn cells in the epidermis of SKH-1 mice after topical application; format: in vivo, mouse
Procedure: Chemicals and Animals. […] Female SKH-1 hairless mice (6 to 7 weeks old) were purchased from the Charles River Breeding Laboratories, and the animals were kept in an animal facility for at least one week before use at 7 to 8 weeks of age. Mice were given water and PURINA® Laboratory CHOW® 5001 diet from Ralston-Purina (St. […] For the analysis conducted herein, 5 mice were used per group. Treatment of Mice with UVB. […] The radiation was further calibrated with a model IL-1700 research radiometer/photometer (International Light, Newburyport, Mass.). Measurement of apoptotic sunburn cells. Identification of apoptoic sunburn cells was based morphologically on cell shrinkage and nuclear condensation due to fragmentation of the cells. […] Six hours after UVB, the animals were sacrificed and apoptotic sunburn cells in the epidermis were determined morphologically. […] Six hours after UVB, the animals were sacrificed and apoptotic sunburn cells in the epidermis were determined morphologically. […] Acetone Formulation. […] Six hours after UVB, the animals were sacrificed and apoptotic sunburn cells in the epidermis were determined morphologically. […] […] Formulations. […] Six hours after UVB the animals were sacrificed and apoptotic sunburn cells in the epidermis were determined morphologically. […] Six hours after UVB the animals were sacrificed and apoptotic sunburn cells in the epidermis were determined morphologically.

[4] = system: apoptotic sunburn cells in the epidermis of FVB mice; assay: UVB-induced apoptotic sunburn cells in FVB mice, topical caffeine; format: in vivo, mouse; conditions: 1.2 mg (6.2 μmole) in 100 μL acetone immediately, 0.5 and 2 hours after UVB 60 mJ/cm2; 6 hours
From the text: Apoptotic sunburn cells were identified by changes in morphology and counted.

[5] = Weight of mouse during topical treatment of UVB-pretreated high risk SKH-1 mice; format: in vivo
Procedure: Female SKH-1 mice were treated with 30 mJ/cm^2 of UVB twice a week for 20 weeks.

[6] = system: cyclin B1; assay: Epidermal cyclin B1 in UVB-treated mice, western blot and immunohistochemistry; format: in vivo, mouse
[7] = system: apoptotic sunburn cells in the epidermis of C57/BL/6J p53(−/−) mice; assay: UVB-induced apoptotic sunburn cells in C57/BL/6J p53(−/−) mice, topical caffeine; format: in vivo, mouse
Procedure: The time course for apoptosis was determined by utilizing morphologically distinct sunburn cells as the marker for apoptosis. […] Accordingly, studies with a C57/BL/6J mouse were performed with a 60 mJ/cm^2 dose of UVB.
Measurement of apoptotic sunburn cells. Identification of apoptoic sunburn cells was based morphologically on cell shrinkage and nuclear condensation due to fragmentation of the cells. […] The percentage of apoptotic sunburn cells in the epidermis (basal plus suprabasal layers) was calculated from the number of these cells per 100 cells counted from the entire 20 mm length of epidermis for each skin section.

[8] = system: UVB-induced skin lesions in SKH-1 mice; assay: Prevention of UVB-induced skin (sunburn) lesions, sunscreen effect; format: in vivo, mouse; conditions: 4.8% caffeine or 8.0% caffeine sodium benzoate (24 μmoles) in 100 mg DERMABASE 30 minutes before UVB 180 mJ/cm^2 on two consecutive days (FIG. 2)
Procedure: The areas (mm^2) and the intensity of red color in UVB-induced skin lesion were estimated semi-quantitatively 5 days after first UVB treatment. The lesion index were calculated as the lesion area multiplied by the arbitrary intensity: 0, no lesion; 1 barely detectable red lesion; 2 moderate red lesion, and 3, bright red lesion.
Outdoor occupational human exposure to UVB or a sunbathing exposure in the summer has been reported to range from 50-100 mJ/cm^2 per day (Larko, et al. (1983) Clin. Exp. Dermatol. 8:279-285; Diffey (1991) Phys. Med. Biol. 36:299-328).

SMILES: Cn1c(=O)c2c(ncn2C)n(C)c1=O [Caffeine, caffeine]
- No. of large tumors (diameter > 5 mm) ([1]; week 0, 1.2% CF in DERMABASE): 0
- Tumor volume per mouse (all mice) (mm^3) ([1]; week 0, 1.2% CF in DERMABASE): 0 mm^3
- Tumor volume per tumor (mm^3) ([1]; week 0, 1.2% CF in DERMABASE): 0 mm^3
- Tumors per mouse ([1]; week 0, 1.2% CF in DERMABASE): 0
- No. of large tumors (diameter > 5 mm) ([1]; week 0, 3.6% CF in DERMABASE): 0
- Tumor volume per mouse (all mice) (mm^3) ([1]; week 0, 3.6% CF in DERMABASE): 0 mm^3
- Tumor volume per tumor (mm^3) ([1]; week 0, 3.6% CF in DERMABASE): 0 mm^3
- Tumors per mouse ([1]; week 0, 3.6% CF in DERMABASE): 0
- No. of large tumors (diameter > 5 mm) ([1]; week 5, 1.2% CF in DERMABASE): 0
- Tumor volume per mouse (all mice) (mm^3) ([1]; week 5, 1.2% CF in DERMABASE): 0.1 ± 0.0 mm^3
- Tumor volume per tumor (mm^3) ([1]; week 5, 1.2% CF in DERMABASE): 0.5 ± 0.0 mm^3
- Tumors per mouse ([1]; week 5, 1.2% CF in DERMABASE): 0.1 ± 0.1
- No. of large tumors (diameter > 5 mm) ([1]; week 5, 3.6% CF in DERMABASE): 0
- Tumor volume per mouse (all mice) (mm^3) ([1]; week 5, 3.6% CF in DERMABASE): 0.1 ± 0.0 mm^3
- Tumor volume per tumor (mm^3) ([1]; week 5, 3.6% CF in DERMABASE): 0.5 ± 0.0 mm^3
- Tumors per mouse ([1]; week 5, 3.6% CF in DERMABASE): 0.2 ± 0.1
- No. of large tumors (diameter > 5 mm) ([1]; week 7, 1.2% CF in DERMABASE): 0
- Tumor volume per mouse (all mice) (mm^3) ([1]; week 7, 1.2% CF in DERMABASE): 0.4 ± 0.2 mm^3
- Tumor volume per tumor (mm^3) ([1]; week 7, 1.2% CF in DERMABASE): 1.3 ± 0.5 mm^3
- Tumors per mouse ([1]; week 7, 1.2% CF in DERMABASE): 0.4 ± 0.1
- No. of large tumors (diameter > 5 mm) ([1]; week 7, 3.6% CF in DERMABASE): 0
- Tumor volume per mouse (all mice) (mm^3) ([1]; week 7, 3.6% CF in DERMABASE): 0.3 ± 0.1 mm^3
- Tumor volume per tumor (mm^3) ([1]; week 7, 3.6% CF in DERMABASE): 1.3 ± 0.7 mm^3
- Tumors per mouse ([1]; week 7, 3.6% CF in DERMABASE): 0.2 ± 0.1
- No. of large tumors (diameter > 5 mm) ([1]; week 9, 1.2% CF in DERMABASE): 0
- Tumor volume per mouse (all mice) (mm^3) ([1]; week 9, 1.2% CF in DERMABASE): 2.0 ± 1.0 mm^3
- Tumor volume per tumor (mm^3) ([1]; week 9, 1.2% CF in DERMABASE): 3.3 ± 1.5 mm^3
- Tumors per mouse ([1]; week 9, 1.2% CF in DERMABASE): 0.6 ± 0.2
- No. of large tumors (diameter > 5 mm) ([1]; week 9, 3.6% CF in DERMABASE): 0
- Tumor volume per mouse (all mice) (mm^3) ([1]; week 9, 3.6% CF in DERMABASE): 0.8 ± 0.5 mm^3
- Tumor volume per tumor (mm^3) ([1]; week 9, 3.6% CF in DERMABASE): 1.9 ± 1.1 mm^3
- Tumors per mouse ([1]; week 9, 3.6% CF in DERMABASE): 0.4 ± 0.1
- No. of large tumors (diameter > 5 mm) ([1]; week 11, 1.2% CF in DERMABASE): 0
- Tumor volume per mouse (all mice) (mm^3) ([1]; week 11, 1.2% CF in DERMABASE): 3.7 ± 1.4 mm^3
- Tumor volume per tumor (mm^3) ([1]; week 11, 1.2% CF in DERMABASE): 3.5 ± 1.0 mm^3
- Tumors per mouse ([1]; week 11, 1.2% CF in DERMABASE): 1.1 ± 0.3
- No. of large tumors (diameter > 5 mm) ([1]; week 11, 3.6% CF in DERMABASE): 0
- Tumor volume per mouse (all mice) (mm^3) ([1]; week 11, 3.6% CF in DERMABASE): 1.6 ± 0.6 mm^3
- Tumor volume per tumor (mm^3) ([1]; week 11, 3.6% CF in DERMABASE): 1.3 ± 0.4 mm^3
- Tumors per mouse ([1]; week 11, 3.6% CF in DERMABASE): 1.2 ± 0.3
- UVB-induced increase in the level of phospho-Chk2 (Ser387) [2]: inhibited
- Percent Sunburn Cells, UVB ([3]; 6.2 μmole (each) in 100 μL acetone:water (9:1) immediately after UVB 30 mJ/cm^2 and at 30 and 120 min, 6 h, mean ± S.E.): 0.64 ± 0.15%
- Percent Apoptotic Sunburn Cells ([3]; 6.2 μmole in 100 μL acetone right after UVB 30 mJ/cm^2 and at 30 and 120 min, 6 h after UVB, mean ± S.E.): 0.506 ± 0.013^a %
- Percent Sunburn Cells, UVB ([3]; 100 mg formulation (2.4% caffeine or 4.0% caffeine sodium benzoate, 12.4 μmole, in DERMABASE; or commercial product) immediately after UVB 30 mJ/cm^2, 6 h): 1.96 ± 0.20^a %
- Percent Sunburn Cells, UVB ([3]; 0.6% Caffeine in 100 mg DERMABASE immediately after UVB 30 mJ/cm^2, 6 h): 0.40 ± 0.18^a %
- Percent Sunburn Cells, UVB ([3]; 1.2% Caffeine in 100 mg DERMABASE immediately after UVB 30 mJ/cm^2, 6 h): 0.58 ± 0.12^a %
- Percent Sunburn Cells, UVB ([3]; 2.4% Caffeine in 100 mg DERMABASE immediately after UVB 30 mJ/cm^2, 6 h): 0.58 ± 0.14^a %
- Percent Sunburn Cells, UVB ([3]; 3.6% Caffeine in 100 mg DERMABASE immediately after UVB 30 mJ/cm^2, 6 h): 0.82 ± 0.10^a %
- Percent Sunburn Cells, UVB ([3]; 4.8% Caffeine in 100 mg DERMABASE immediately after UVB 30 mJ/cm^2, 6 h): 0.96 ± 0.13^a %
- enhancement of UVB-induced apoptosis in the epidermis, applied in DERMABASE ([3]; DERMABASE vehicle, equimolar amounts (Table 4)): more effective at enhancing UVB-induced apoptosis when applied to the skin in DERMABASE™ than when applied to the skin in acetone
- Percent Apoptotic Sunburn Cells ([3]; Exp-1, 6.2 μmole in acetone:water (9:1) x3 after UVB 30 mJ/cm^2, 6 h): 0.51 ± 0.01%
- Percent Apoptotic Sunburn Cells ([3]; Exp-2, 6.2 μmole in acetone:water (9:1) x3 after UVB 30 mJ/cm^2, 6 h): 0.48 ± 0.04%
- % Induction ([3]; Table 1, vs acetone group, 6.2 μmole x3 after UVB 30 mJ/cm^2, 6 h): 148%
- % Induction ([3]; Table 2, vs acetone, 6.2 μmole in acetone:water (9:1)): 205%
- % Induction ([3]; Table 3 Exp-1, 6.2 μmole): 155%
- % Induction ([3]; Table 3 Exp-2, 6.2 μmole): 129%
- % Induction ([3]; Table 4, 0.6% Caffeine in DERMABASE): 100%
- % Induction ([3]; Table 4, 1.2% Caffeine in DERMABASE): 190%
- % Induction ([3]; Table 4, 2.4% Caffeine in DERMABASE): 190%
- % Induction ([3]; Table 4, 3.6% Caffeine in DERMABASE): 270%
- % Induction ([3]; Table 5, vs DERMABASE, 100 mg formulation after UVB): 284%
- enhancement of UVB-induced increase of apoptotic sunburn cells [4]: 120-150%
- Weight of mouse ([5]; week 0, 1.2% CF in DERMABASE): 30.3 ± 0.5 g
- Weight of mouse ([5]; week 0, 3.6% CF in DERMABASE): 30.5 ± 0.6 g
- Weight of mouse ([5]; week 5, 1.2% CF in DERMABASE): 29.6 ± 0.5 g
- Weight of mouse ([5]; week 5, 3.6% CF in DERMABASE): 30.0 ± 0.5 g
- Weight of mouse ([5]; week 7, 1.2% CF in DERMABASE): 29.5 ± 0.5 g
- Weight of mouse ([5]; week 7, 3.6% CF in DERMABASE): 29.6 ± 0.5 g
- Weight of mouse ([5]; week 9, 1.2% CF in DERMABASE): 30.0 ± 0.4 g
- Weight of mouse ([5]; week 9, 3.6% CF in DERMABASE): 29.8 ± 0.5 g
- Weight of mouse ([5]; week 11, 1.2% CF in DERMABASE): 30.0 ± 0.5 g
- Weight of mouse ([5]; week 11, 3.6% CF in DERMABASE): 30.1 ± 0.5 g
- percent of cyclin B1 positive cells in the epidermis ([6]; UVB-treated mice, frozen sections, immunohistochemical): substantially enhanced
- effect on cyclin B1 positive cells in the absence of UVB ([6]; no UVB): little or no effect
- level of epidermal cyclin B1 vs UVB alone ([6]; topical immediately after UVB 30 mJ/cm2, western blot): increased substantially
- enhancement of UVB-induced increase in apoptotic sunburn cells ([7]; female p53(−/−), UVB 60 mJ/cm^2, 6 hours after UVB): 563%
- effect on apoptosis in non-UVB-treated epidermis ([7]; male p53(−/−), no UVB): no effect
- formation of UVB-induced sunburn (skin) lesions [8]: inhibited the formation of sunburn lesions; also recorded: inhibited UVB-induced sunburn lesions

Source: patent US8029770B2 (Rutgers, The State University, priority 2003, dated 2011)
